Measurements: patent US20260265259A1, “SUBSTITUTED 6-IMIDAZOPYRIDAZINE IL-17A MODULATORS AND USES THEREOF” (DICE ALPHA, INC., priority 2023, published 2026)

system: IL-17A/A; experiment: IL-17A/A HEK-Blue cell assay; assay type: cell-based; settings: HEK-Blue, 20 h, IL-17A/A inhibition, HEK-Blue IL-17A reporter cell line, IL17A/A 5 ng/mL, SEAP read at A630, read-out: AA IC50
How it was run: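 HEK 293 reporter cells expressing IL-17RA, IL-17RC and Act1, stimulated with 5 ng/mL IL17A/A or IL17A/F for 20 h alongside compound (10 μM to 27 pM, 0.1% DMSO). NFκB-driven SEAP in the medium read at A630 with Quanti-Blue; IC50 from 4-parameter fit.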

Which IC50 does the source give for `CCn1nccc1C(=O)N[C@H](c1cn2nc(C[C@H]3C[C@@H](C(F)(F)F)CNC3=O)c(C3CCN(C)C3)cc2n1)C1CCC(F)(F)CC1` (stereo partly drawn) [Compound 61] here?
Its IC50 is 100 to 1000 nM.

For `CCn1nccc1C(=O)N[C@H](c1cn2nc(C[C@H]3C[C@@H](C(F)(F)F)CNC3=O)c(CN3CCC(F)(F)C3)cc2n1)C1CCC(F)(F)CC1` [Compound 105, N—((S)-(4,4-difluorocyclohexyl)(7-((3,3-difluoropyrrolidin-1-yl)methyl)-6-(((3R,5R)-2-oxo-5-(trifluoromethyl)piperidin-3-yl)methyl)imidazo[1,2-b]pyridazin-2-yl)methyl)-1-ethyl-1H-pyrazole-5-carboxamide], which IC50 is on record?
Its IC50 is < 100 nM.

With `CCn1nccc1C(=O)N[C@H](c1cn2nc(C[C@H]3C[C@@H](C(F)(F)F)CNC3=O)c(C3CC3)cc2n1)C1CCC(F)(F)CC1` [Compound 36] as the molecule, how does the IC50 read?
The IC50 was < 100 nM.
